According to ChEMBL document CHEMBL1125472, “5-lipoxygenase: properties, pharmacology, and the quinolinyl(bridged)aryl class of inhibitors” (J Med Chem, 1992):
Blank lines part the entries; values can stand above or below the molecule they belong to.

Key:
[1] = target: T1, Polyunsaturated fatty acid 5-lipoxygenase (Rattus norvegicus, UniProt P12527); assay: The compound was tested for inhibitory activity against 5-Lipoxygenase in rat RBL-1; type: cell-based
T1 sequence (P12527 whole entry): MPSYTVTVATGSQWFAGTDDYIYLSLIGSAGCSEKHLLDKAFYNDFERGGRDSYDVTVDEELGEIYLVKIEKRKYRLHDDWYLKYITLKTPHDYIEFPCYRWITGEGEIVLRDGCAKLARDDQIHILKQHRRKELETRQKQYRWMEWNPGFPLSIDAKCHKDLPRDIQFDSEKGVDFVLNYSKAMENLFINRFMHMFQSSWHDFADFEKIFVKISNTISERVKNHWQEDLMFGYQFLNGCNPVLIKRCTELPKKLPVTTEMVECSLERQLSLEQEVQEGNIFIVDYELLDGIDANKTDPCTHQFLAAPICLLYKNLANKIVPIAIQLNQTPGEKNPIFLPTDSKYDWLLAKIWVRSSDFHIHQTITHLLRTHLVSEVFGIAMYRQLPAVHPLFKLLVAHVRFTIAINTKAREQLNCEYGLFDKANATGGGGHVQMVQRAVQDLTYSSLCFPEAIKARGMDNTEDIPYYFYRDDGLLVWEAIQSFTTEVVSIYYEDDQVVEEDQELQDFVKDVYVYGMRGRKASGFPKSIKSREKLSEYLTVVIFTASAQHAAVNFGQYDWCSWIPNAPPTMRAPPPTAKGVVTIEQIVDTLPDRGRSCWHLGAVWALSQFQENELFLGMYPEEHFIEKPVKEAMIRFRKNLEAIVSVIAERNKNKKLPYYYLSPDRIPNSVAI

[2] = target: T1, Polyunsaturated fatty acid 5-lipoxygenase; assay: The compound was tested for inhibitory activity against 5-lipoxygenase translocation inhibitor in rat RBL-2H3 cells; type: functional, cell-based
[3] = target: T2, Leukotriene C4 synthase (Rattus norvegicus) (UniProt Q925U2); assay: The compound was tested for inhibition LTC4 synthase from whole cells in rat
T2 sequence (whole entry): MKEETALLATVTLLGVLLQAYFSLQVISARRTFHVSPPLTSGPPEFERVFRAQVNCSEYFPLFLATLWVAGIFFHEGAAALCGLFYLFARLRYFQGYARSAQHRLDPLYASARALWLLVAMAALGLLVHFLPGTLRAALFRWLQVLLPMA

[4] = target: T3, Polyunsaturated fatty acid 5-lipoxygenase (Rattus norvegicus) (UniProt P12527); assay: The compound was tested for inhibition of 5-lipoxygenase translocation in SAR in rat RBL-2H3 cells; type: functional, cell-based
T3 sequence (whole entry): T1 sequence (P12527 whole entry)

[5] = target: T4, Polyunsaturated fatty acid 5-lipoxygenase (Homo sapiens, UniProt P09917); assay: The compound was tested for inhibitory activity against LT synthesis in human polymorphonuclear leukocytes[PMNS]; type: cell-based
T4 sequence (P09917 whole entry): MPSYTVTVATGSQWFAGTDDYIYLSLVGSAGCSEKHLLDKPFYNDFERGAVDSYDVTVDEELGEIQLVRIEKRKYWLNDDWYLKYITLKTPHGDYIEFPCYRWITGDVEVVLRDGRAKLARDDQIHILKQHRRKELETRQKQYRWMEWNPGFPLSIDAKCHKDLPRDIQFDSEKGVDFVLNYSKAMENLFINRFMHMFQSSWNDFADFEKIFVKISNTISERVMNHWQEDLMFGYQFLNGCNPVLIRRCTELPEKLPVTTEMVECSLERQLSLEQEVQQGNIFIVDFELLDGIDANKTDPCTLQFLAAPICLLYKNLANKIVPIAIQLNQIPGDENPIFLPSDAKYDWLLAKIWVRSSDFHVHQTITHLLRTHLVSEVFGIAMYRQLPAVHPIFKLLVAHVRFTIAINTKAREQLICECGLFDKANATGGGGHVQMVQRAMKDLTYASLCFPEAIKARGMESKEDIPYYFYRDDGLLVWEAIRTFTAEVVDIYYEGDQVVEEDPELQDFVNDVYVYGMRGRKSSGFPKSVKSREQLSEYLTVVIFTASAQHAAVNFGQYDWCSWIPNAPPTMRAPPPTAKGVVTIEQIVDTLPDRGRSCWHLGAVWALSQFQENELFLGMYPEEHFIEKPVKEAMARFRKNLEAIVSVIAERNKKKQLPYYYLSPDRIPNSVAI

Homo sapiens [6] = species on record: Homo sapiens; assay: The compound was tested for inhibitory activity against Leukotriene synthesis in human monocytes; type: functional
[7] = target: T3, Polyunsaturated fatty acid 5-lipoxygenase (Rattus norvegicus); assay: The compound was tested for inhibition of isolated 5-lipoxygenase
Homo sapiens [8] = species on record: Homo sapiens; assay: The compound was tested for inhibitory activity against 5-Lipoxygenase in human polymorphonuclear leukocytes[PMNS]; type: functional
[9] = target: T3, Polyunsaturated fatty acid 5-lipoxygenase (Rattus norvegicus); assay: The compound was tested for inhibition against 5-lipoxygenase in rat polymorphonuclear leukocytes[PMNS] at 10 uM concentration; type: cell-based
Cavia porcellus [10] = species on record: Cavia porcellus; assay: The compound was tested for blocking of LTD4-induced contractions of guinea pig trachea; type: functional; conditions: read-out: pA2 (converted)
[11] = target: T5, Cysteinyl leukotriene receptor 1 (Cavia porcellus, UniProt Q2NNR5); assay: The compound was tested for binding affinity against Cysteinyl leukotriene D4 receptor in a soluble guinea pig LTD4 receptor preparation
T5 sequence (Q2NNR5 whole entry): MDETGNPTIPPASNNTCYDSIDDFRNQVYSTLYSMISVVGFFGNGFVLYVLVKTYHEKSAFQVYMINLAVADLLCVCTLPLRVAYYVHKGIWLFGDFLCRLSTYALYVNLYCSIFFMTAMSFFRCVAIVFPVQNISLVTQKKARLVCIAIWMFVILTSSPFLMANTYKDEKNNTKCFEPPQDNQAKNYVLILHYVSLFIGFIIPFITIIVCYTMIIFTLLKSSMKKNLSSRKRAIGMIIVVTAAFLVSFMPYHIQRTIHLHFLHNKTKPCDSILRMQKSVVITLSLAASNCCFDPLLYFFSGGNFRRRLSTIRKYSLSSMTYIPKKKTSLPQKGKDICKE

Cyclooxygenase [12] = target: Cyclooxygenase (Homo sapiens, UniProt P35354+P23219); assay: The compound was tested for inhibitory activity against Prostaglandin G/H synthase in human polymorphonuclear leukocytes[PMNS]; type: cell-based
[13] = target: T1, Polyunsaturated fatty acid 5-lipoxygenase; assay: The compound was tested for inhibitory activity against 5-lipoxygenase using rat polymorphonuclear leukocytes[PMNS]
Cavia porcellus [14] = species on record: Cavia porcellus; assay: The compound was tested for inhibition of LTD4-induced bronchoconstriction in guinea pig; type: functional
Cyclooxygenase [15] = target: T6, Cyclooxygenase (Rattus norvegicus, UniProt P35355+Q63921); assay: The compound was tested for inhibitory activity against Prostaglandin G/H synthase in rat polymorphonuclear leukocytes[PMNS]; type: cell-based
T6 sequence (P35355 whole entry): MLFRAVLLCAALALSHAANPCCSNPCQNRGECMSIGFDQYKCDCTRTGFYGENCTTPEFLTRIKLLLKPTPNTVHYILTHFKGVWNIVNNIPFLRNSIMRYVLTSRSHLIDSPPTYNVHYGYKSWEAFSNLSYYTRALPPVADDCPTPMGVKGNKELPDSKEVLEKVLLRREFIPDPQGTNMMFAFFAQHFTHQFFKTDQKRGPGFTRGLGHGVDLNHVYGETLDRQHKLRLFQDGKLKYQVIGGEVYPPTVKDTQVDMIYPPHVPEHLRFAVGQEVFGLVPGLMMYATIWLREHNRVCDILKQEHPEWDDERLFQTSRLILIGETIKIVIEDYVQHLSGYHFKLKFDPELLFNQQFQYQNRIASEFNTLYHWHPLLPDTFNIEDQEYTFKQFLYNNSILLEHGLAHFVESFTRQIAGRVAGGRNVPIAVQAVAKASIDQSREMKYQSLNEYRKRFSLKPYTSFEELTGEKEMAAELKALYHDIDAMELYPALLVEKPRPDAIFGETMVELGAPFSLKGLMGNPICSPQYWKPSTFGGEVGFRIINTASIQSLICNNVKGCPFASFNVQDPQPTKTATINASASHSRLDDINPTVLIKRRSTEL
T6 sequence (Q63921 whole entry): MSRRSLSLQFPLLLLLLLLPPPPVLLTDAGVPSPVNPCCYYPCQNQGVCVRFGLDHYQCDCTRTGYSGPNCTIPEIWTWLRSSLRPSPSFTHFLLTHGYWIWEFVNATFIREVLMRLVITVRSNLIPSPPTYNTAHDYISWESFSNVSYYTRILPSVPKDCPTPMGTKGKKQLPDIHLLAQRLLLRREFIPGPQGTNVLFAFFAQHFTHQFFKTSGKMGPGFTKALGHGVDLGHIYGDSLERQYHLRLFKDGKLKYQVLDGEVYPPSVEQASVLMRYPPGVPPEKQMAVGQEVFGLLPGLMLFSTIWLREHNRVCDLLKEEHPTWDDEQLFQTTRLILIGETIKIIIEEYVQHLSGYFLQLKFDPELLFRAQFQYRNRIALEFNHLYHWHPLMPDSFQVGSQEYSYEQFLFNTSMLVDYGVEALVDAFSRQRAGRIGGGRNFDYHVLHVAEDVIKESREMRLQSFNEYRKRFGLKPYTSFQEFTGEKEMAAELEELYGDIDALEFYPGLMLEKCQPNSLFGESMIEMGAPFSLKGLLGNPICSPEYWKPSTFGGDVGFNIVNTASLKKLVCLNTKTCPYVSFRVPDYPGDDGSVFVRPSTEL

RBL-2H3 [16] = assay: The compound was tested for inhibition of translocation in SAR in RBL-2H3 cells; type: functional, Rattus norvegicus
[17] = target: T3, Polyunsaturated fatty acid 5-lipoxygenase (Rattus norvegicus); assay: The compound was tested for inhibition of isolated 5-Lipoxygenase
RBL-2H3 [18] = assay: The compound was tested for inhibition LTC4 synthesis; type: functional, Rattus norvegicus
Cavia porcellus [19] = species on record: Cavia porcellus; assay: The effective dose for inhibition of LTD4-induced contractions of guinea pig trachea; type: functional
[20] = target: T4, Polyunsaturated fatty acid 5-lipoxygenase
[21] = target: T3, Polyunsaturated fatty acid 5-lipoxygenase (Rattus norvegicus); assay: The compound was tested for inhibition against 5-Lipoxygenase in rat polymorphonuclear leukocytes at 10 uM concentration; type: cell-based
[22] = target: T1, Polyunsaturated fatty acid 5-lipoxygenase; assay: The compound was tested for inhibitory activity against 5-lipoxygenase in rat polymorphonuclear leukocytes[PMNS]; type: cell-based

IC50 [1]: 11000 nM
Compound: CC(c1ccoc1)N(O)C(N)=O (stereo not drawn)

IC50 [2]: 5 nM | Inhibition [3]: 3 nM | Inhibition [4]: 35 nM | IC50 [5]: 60 nM | IC50 (Homo sapiens [6]): 50 nM | Inhibition [7]: > 20 µM | IC50 (Homo sapiens [8]): 2.5 nM
Compound: CC(C)c1ccc2c(c1)c(SC(C)(C)C)c(CC(C)(C)C(=O)O)n2Cc1ccc(Cl)cc1

Inhibition [9]: 100%
Compound: O=C(O)Cc1ccc(-c2ccc(OCc3ccc4ccccc4n3)cc2)c(F)c1

Ki [11]: 60 nM
Compound: CCCc1c(OCCCCc2nnn[nH]2)ccc(C(C)=O)c1O [TOMELUKAST]
Kb (Cavia porcellus [10]): 209 nM

IC50 (Cyclooxygenase [12]): 25000 nM
Compound: CC(C)(C)c1cc(-c2cn3ncc(=O)nc3s2)cc(C(C)(C)C)c1O

IC50 [13]: 53000 nM | IC50 (Cyclooxygenase [15]): 5820 nM
Compound: Oc1ccccc1OCc1ccc2ccccc2n1
Inhibition (Cavia porcellus [14]): 28%

Inhibition [17]: > 20 µM
Compound: COc1ccc2cc([C@H](C)C(=O)O)ccc2c1 [NAPROXEN]
Inhibition (RBL-2H3 [16]): >10 µM | Inhibition (RBL-2H3 [18]): >10 µM

Compound: CC(C)(C)CC(=O)c1c(CC(C)(C)C(=O)O)n(Cc2ccc(Cl)cc2)c2ccc(OCc3ccc4ccccc4n3)cc12
IC50 (Cyclooxygenase [12]): 2 nM

Compound: CONC(=O)Cc1cccc(OCc2ccc3ccccc3n2)c1
ED50 (Cavia porcellus [19]): 7.9 mg/kg

IC50 [20]: 6000 nM
Compound: O=C(CCCCCCCCc1ccccc1)NO

Inhibition [21]: 92%
Compound: CC(C(=O)O)c1ccc2c3cc(OCc4ccc5ccccc5n4)ccc3n(Cc3ccc4ccccc4n3)c2c1 (stereo not drawn)

IC50 [22]: 2500 nM
Compound: CCCCC[C@H](O)c1cccc(OCc2cccc(CC(=O)O)c2)c1
